Source: patent US5294701A, “Anthracycline compounds and intermediates” (Pharmachemie B.V., priority 1990, dated 1994)
Values after ≈ are worked out from the molar mass of the structure shown. Structures can show the parent of a compound that is named as a salt. Where two headings read alike, the source gives them in different places.

Key:
Assay type in all cases: cell-based
[1] = tested on: IgR-37 melanoma cells (Z-cells); assay: Inhibition of growth of human tumour cell line IgR-37 in vitro (PIT method of van Lambalgen and Lelieveld)
Experimental: (§1) A number of compounds were examined with the following human tumour cell lines according to the method of R. van Lambalgen and P. Lelieveld, "The PIT method: and automated in vitro technique for drug toxicity testing", Invest. New Drugs 5, 161-165, 1987.
IgR-37 melanoma cells (Z-cells)
(§2) The cell lines where maintained in a continuous logarithmic culture in Dulbeco's medium supplemented with 10% fetal calf serum, penicillin (100 IU/ml) and streptomycin (100 μg/ml).
(§3) The ID50 values of the above compounds, expressed in ng/ml, where determined according to the abovementioned method of van Lambalgen and Lelieveld. The ID50 value is the amount which inhibits 50% of the cell growth.

[2] = tested on: WiDr colon tumour cells (W-cells); assay: Inhibition of growth of human tumour cell line WiDr in vitro (PIT method of van Lambalgen and Lelieveld); settings: read-out: ID50 values in ng/ml, WiDr (amount which inhibits 50% of the cell growth)
Experimental: as §1
WiDr colon tumour cells (W-cells)
as §2, §3

[3] = tested on: T 24 bladder carcinoma cells (T-cells); assay: Inhibition of growth of human tumour cell line T 24 in vitro (PIT method of van Lambalgen and Lelieveld)
Experimental: as §1
T 24 bladder carcinoma cells (T-cells)
as §2, §3

[4] = tested on: A 204 rhabdomyosarcoma (A-cells); assay: Inhibition of growth of human tumour cell line A 204 in vitro (PIT method of van Lambalgen and Lelieveld)
Experimental: as §1
A 204 rhabdomyosarcoma (A-cells)
as §2, §3

[5] = tested on: MCF-7 mammary carcinoma cells (M-cells); assay: Inhibition of growth of human tumour cell line MCF-7 in vitro (PIT method of van Lambalgen and Lelieveld)
Experimental: as §1
MCF-7 mammary carcinoma cells (M-cells)
as §2, §3

[6] = IgR-37 melanoma cells, read-out: ID50 values in ng/ml, IgR-37 (amount which inhibits 50% of the cell growth)
[7] = T24, T 24 bladder carcinoma cells, read-out: ID50 values in ng/ml, T24 (amount which inhibits 50% of the cell growth)
[8] = A204, A 204 rhabdomyosarcoma cells, read-out: ID50 values in ng/ml, A204 (amount which inhibits 50% of the cell growth)
[9] = MCF7, MCF-7 mammary carcinoma cells, read-out: ID50 values in ng/ml, MCF-7 (amount which inhibits 50% of the cell growth)
[10] = IGR-37, read-out: ID50 values in ng/ml, IgR-37 (amount which inhibits 50% of the cell growth)
[11] = T24, read-out: ID50 values in ng/ml, T24 (amount which inhibits 50% of the cell growth)
[12] = A204, read-out: ID50 values in ng/ml, A204 (amount which inhibits 50% of the cell growth)
[13] = MCF7, read-out: ID50 values in ng/ml, MCF-7 (amount which inhibits 50% of the cell growth)

| Structure (SMILES) | IC50 [1, 6] | IC50 ([2]; WiDr colon tumour cells) | IC50 [3, 7] | IC50 [4, 8] | IC50 [5, 9] | IC50 [1, 10] | IC50 ([2]; WiDr) | IC50 [3, 11] | IC50 [4, 12] | IC50 [5, 13] |
| --- | --- | --- | --- | --- | --- | --- | --- | --- | --- | --- |
| C#C[C@]1(O)CC2=C(C(=O)c3c(O)ccc(O)c3C2=O)[C@@H](O[C@H]2C[C@H](N)[C@H](O)[C@H](C)O2)C1 [HRM16] | 1940 ng/mL (≈ 4.51 µM) | 2120 ng/mL (≈ 4.93 µM) | 1260 ng/mL (≈ 2.94 µM) | 280 ng/mL (≈ 0.652 µM) | 338 ng/mL (≈ 0.787 µM) | – | – | – | – | – |
| COc1cc([C@@H]2c3cc4c(cc3[C@@H](O[C@@H]3O[C@@H]5CO[C@@H](C)O[C@H]5[C@H](O)[C@H]3O)[C@H]3COC(=O)[C@H]23)OCO4)cc(OC)c1O [Etoposide, reference compound] | – | – | – | – | – | 427 ng/mL (≈ 0.725 µM) | 624 ng/mL (≈ 1.06 µM) | 457 ng/mL (≈ 0.776 µM) | 91 ng/mL (≈ 0.155 µM) | 187 ng/mL (≈ 0.318 µM) |
| CC(=O)[C@]1(O)CC2=C(C(=O)c3c(O)ccc(O)c3C2=O)[C@@H](O[C@H]2C[C@H](N)[C@H](O)[C@H](C)O2)C1 [HRM13] | 2440 ng/mL (≈ 5.46 µM) | 1420 ng/mL (≈ 3.18 µM) | 1050 ng/mL (≈ 2.34 µM) | 729 ng/mL (≈ 1.63 µM) | 542 ng/mL (≈ 1.21 µM) | – | – | – | – | – |
| C[C@@H]1O[C@@H](O[C@H]2C[C@](O)(C#C[Si](C)(C)C)Cc3c(O)c4c(c(O)c32)C(=O)c2ccccc2C4=O)C[C@H](NC(=O)C(F)(F)F)[C@@H]1O [HRM03] | – | – | – | – | – | 146 ng/mL (≈ 0.225 µM) | 156 ng/mL (≈ 0.241 µM) | 444 ng/mL (≈ 0.686 µM) | 97 ng/mL (≈ 0.15 µM) | 151 ng/mL (≈ 0.233 µM) |
| C#C[C@]1(O)Cc2c(O)c3c(c(O)c2[C@@H](O[C@H]2C[C@H](N)[C@H](O)[C@H](C)O2)C1)C(=O)c1c(OC)cccc1C3=O [HRM12] | 63 ng/mL (≈ 0.124 µM) | 87 ng/mL (≈ 0.171 µM) | 140 ng/mL (≈ 0.275 µM) | 21 ng/mL (≈ 0.0412 µM) | 39 ng/mL (≈ 0.0765 µM) | – | – | – | – | – |
| COc1cccc2c1C(=O)c1c(O)c3c(c(O)c1C2=O)C[C@@](O)(C(C)=O)C[C@@H]3O[C@H]1C[C@H](N)[C@H](O)[C@H](C)O1 [Daunomycin.HCl, Daunomycin, reference compound] | – | – | – | – | – | 1 ng/mL | 3 ng/mL | 4 ng/mL | 1 ng/mL | 1 ng/mL |
| C#C[C@]1(O)Cc2c(O)c3c(c(O)c2[C@@H](O[C@H]2C[C@H](NC(=O)C(F)(F)F)[C@H](O)[C@H](C)O2)C1)C(=O)c1ccccc1C3=O [HRM04] | 18 ng/mL (≈ 0.0313 µM) | 43 ng/mL (≈ 0.0747 µM) | 75 ng/mL (≈ 0.13 µM) | 14 ng/mL (≈ 0.0243 µM) | 14 ng/mL (≈ 0.0243 µM) | – | – | – | – | – |
| COc1cccc2c1C(=O)c1c(O)c3c(c(O)c1C2=O)C[C@@](O)(C(=O)CO)C[C@@H]3O[C@H]1C[C@H](N)[C@H](O)[C@H](C)O1 [Adramycin.HCl, Adriamycin, reference compound] | – | – | – | – | – | 6 ng/mL | 16 ng/mL | 18 ng/mL | 4 ng/mL | 6 ng/mL |

Continued, in another order:

| IC50 [1, 6] | IC50 ([2]; WiDr colon tumour cells) | IC50 [3, 7] | IC50 [4, 8] | IC50 [5, 9] | Structure (SMILES) | IC50 [1, 10] | IC50 ([2]; WiDr) | IC50 [3, 11] | IC50 [4, 12] | IC50 [5, 13] |
| --- | --- | --- | --- | --- | --- | --- | --- | --- | --- | --- |
| 469 ng/mL (≈ 0.978 µM) | 372 ng/mL (≈ 0.776 µM) | 728 ng/mL (≈ 1.52 µM) | 243 ng/mL (≈ 0.507 µM) | 420 ng/mL (≈ 0.876 µM) | C#C[C@@]1(O)Cc2c(O)c3c(c(O)c2[C@H](O[C@H]2C[C@H](N)[C@H](O)[C@H](C)O2)C1)C(=O)c1ccccc1C3=O [HRM10] | – | – | – | – | – |
| 459 ng/mL (≈ 0.896 µM) | 779 ng/mL (≈ 1.52 µM) | 949 ng/mL (≈ 1.85 µM) | 171 ng/mL (≈ 0.334 µM) | 334 ng/mL (≈ 0.652 µM) | CC(=O)C1(O)Cc2c(O)c3c(c(O)c2C(O[C@H]2C[C@H](N)[C@H](O)[C@H](C)O2)C1)C(=O)c1ncc(C)cc1C3=O (some centres unmarked) [HRM15] | – | – | – | – | – |
| 77 ng/mL (≈ 0.15 µM) | 139 ng/mL (≈ 0.271 µM) | 173 ng/mL (≈ 0.338 µM) | 45 ng/mL (≈ 0.0878 µM) | 67 ng/mL (≈ 0.131 µM) | CC(=O)C1(O)Cc2c(O)c3c(c(O)c2C(O[C@H]2C[C@H](N)[C@H](O)[C@H](C)O2)C1)C(=O)c1cc(C)cnc1C3=O (some centres unmarked) [HRM11] | – | – | – | – | – |
| 618 ng/mL (≈ 1.24 µM) | 501 ng/mL (≈ 1.01 µM) | 1140 ng/mL (≈ 2.3 µM) | 302 ng/mL (≈ 0.607 µM) | 745 ng/mL (≈ 1.5 µM) | CC(=O)[C@@]1(O)Cc2c(O)c3c(c(O)c2[C@H](O[C@H]2C[C@H](N)[C@H](O)[C@H](C)O2)C1)C(=O)c1ccccc1C3=O [HRM09, α-7.9-bis-epi-4-demethoxydaunomycin, reference compound] | – | – | – | – | – |
| 2 ng/mL (≈ 0.00417 µM) | 4 ng/mL (≈ 0.00834 µM) | 2 ng/mL (≈ 0.00417 µM) | 0.3 ng/mL (≈ 0.000626 µM) | 1 ng/mL (≈ 0.00209 µM) | C#C[C@]1(O)Cc2c(O)c3c(c(O)c2[C@@H](O[C@H]2C[C@H](N)[C@H](O)[C@H](C)O2)C1)C(=O)c1ccccc1C3=O [HRM01] | – | – | – | – | – |
